From PMC12808126 (Scientific Reports, 2025)

Key:
Format in all cases: cell-based
Details in all cases: to LPS control
IL-1β = IL-1β suppression assay
TNF-α = TNF-α suppression assay
IL-6 = IL-6 suppression assay

Structure (SMILES): NS(=O)(=O)c1ccc(-n2nc(C(=O)NN3C(=O)CCC3=O)cc2-c2ccccc2)cc1 [AS-11, N-(2,5-dioxopyrrolidin-1-yl)−5-phenyl-1-(4-sulfamoylphenyl)−1H-pyrazole-3-carboxamide]
- IL-1β release percentage inhibition (IL-1β): 75%
- TNF-α release percentage inhibition (TNF-α): 91%
- IL-6 release percentage inhibition (IL-6): 61%
